{
  "source": "ChEMBL document CHEMBL1157872",
  "about": "“Theoretical models of pentamidine analogs activity based on their DNA minor groove complexes” (Eur J Med Chem, 2010)",
  "key": {"Nucleic Acid [1]": {"tested_on": "Nucleic Acid"}, "Nucleic Acid [2]": {"tested_on": "Nucleic Acid", "test": "Binding affinity to d(CGCGATATCGCG)2 dodecamer assessed as change in melting temperature", "assay_type": "nucleic-acid assay"}},
  "data": [
    {"compound": "CCCNC(=N)c1ccc(-c2ccc(-c3ccc(C(=N)NCCC)cc3)o2)cc1", "values": [
      {"measurement": "ΔTm", "setting": "Nucleic Acid [1]", "value": 13, "unit": "°C"}
    ]},
    {"compound": "CCN1CCN=C1c1ccc(-c2ccc(-c3ccc(C4=NCCN4CC)cc3)o2)cc1", "values": [
      {"measurement": "ΔTm", "setting": "Nucleic Acid [1]", "value": 1.9, "unit": "°C"}
    ]},
    {"compound": "Cn1cc(NC(=O)c2cc(NC(=O)CNC(=N)N)cn2C)cc1C(=O)NCCC(=N)N", "values": [
      {"measurement": "ΔTm", "setting": "Nucleic Acid [1]", "value": 31, "unit": "°C"}
    ]},
    {"compound": "CCCCNC(=N)c1ccc(OCCOCCOc2ccc(C(=N)NCCCC)cc2)cc1", "values": [
      {"measurement": "ΔTm", "setting": "Nucleic Acid [2]", "value": 3.3, "unit": "°C"},
      {"measurement": "ΔTm", "setting": "Nucleic Acid [1]", "value": 3.84, "unit": "°C"}
    ]},
    {"compound": "CN(CCCCCN(C)c1ccc(C(=N)N)cc1)c1ccc(C(=N)N)cc1", "values": [
      {"measurement": "ΔTm", "setting": "Nucleic Acid [2]", "value": 1.1, "unit": "°C"},
      {"measurement": "ΔTm", "setting": "Nucleic Acid [1]", "value": 1.17, "unit": "°C"}
    ]},
    {"compound": "N=C(NC1CCCCC1)c1ccc(OCCOCCOc2ccc(C(=N)NC3CCCCC3)cc2)cc1", "values": [
      {"measurement": "ΔTm", "setting": "Nucleic Acid [2]", "value": 4.3, "unit": "°C"},
      {"measurement": "ΔTm", "setting": "Nucleic Acid [1]", "value": 5.08, "unit": "°C"}
    ]},
    {"compound": "COc1cc(C(=N)N)cc(OC)c1OCCCCCOc1c(OC)cc(C(=N)N)cc1OC", "values": [
      {"measurement": "ΔTm", "setting": "Nucleic Acid [2]", "value": 2.55, "unit": "°C"},
      {"measurement": "ΔTm", "setting": "Nucleic Acid [1]", "value": 2.35, "unit": "°C"}
    ]},
    {"compound": "c1cc(-c2ccc(-c3ccc(C4=NCCN4)cc3)o2)ccc1C1=NCCN1", "values": [
      {"measurement": "ΔTm", "setting": "Nucleic Acid [1]", "value": 11.4, "unit": "°C"}
    ]},
    {"compound": "N=C(N)c1ccc(/N=N/Nc2ccc(C(=N)N)cc2)cc1", "values": [
      {"measurement": "ΔTm", "setting": "Nucleic Acid [2]", "value": 11.9, "unit": "°C"}
    ]},
    {"compound": "N=C(N)c1ccc(-c2ccc(-c3ccc(C(=N)N)cc3)o2)cc1", "values": [
      {"measurement": "ΔTm", "setting": "Nucleic Acid [1]", "value": 11.7, "unit": "°C"}
    ]},
    {"compound": "N=C(N)c1ccc(OCCOCCOc2ccc(C(=N)N)cc2)cc1", "values": [
      {"measurement": "ΔTm", "setting": "Nucleic Acid [2]", "value": 4.2, "unit": "°C"},
      {"measurement": "ΔTm", "setting": "Nucleic Acid [1]", "value": 2.92, "unit": "°C"}
    ]},
    {"compound": "N=C(N)c1ccc(OCCCCCOc2ccc(C(=N)N)cc2)cc1", "values": [
      {"measurement": "ΔTm", "setting": "Nucleic Acid [2]", "value": 6.58, "unit": "°C"},
      {"measurement": "ΔTm", "setting": "Nucleic Acid [1]", "value": 4.65, "unit": "°C"}
    ]},
    {"compound": "N=C(N)c1ccc(NCCNCCNc2ccc(C(=N)N)cc2)cc1", "values": [
      {"measurement": "ΔTm", "setting": "Nucleic Acid [2]", "value": 5.48, "unit": "°C"},
      {"measurement": "ΔTm", "setting": "Nucleic Acid [1]", "value": 5.84, "unit": "°C"}
    ]}
  ]
}
